In publication PMC5608353 (PLoS ONE, 2017):
Values after ≈ are worked out from the molar mass of the structure shown. Where two headings read alike, the source gives them in different places.

Legend:
[1] = tested on: human erythrocytes, epidermal keratinocytes, A549 cells, murine L929 fibroblasts, porcine intestinal epithelial cell line ZYMSIEC02; settings: cited from earlier work
[2] = tested on: C. perfringens CVCC 46
[3] = tested on: C. perfringens JC2
[4] = tested on: C. perfringens JZ10
[5] = tested on: C. perfringens JT1
[6] = tested on: C. perfringens CVCC 46; test: microbe, parasite or virus in culture; settings: Clostridium perfringens, CVCC46, read-out: MICa (MIC of drug used alone)
[7] = tested on: C. perfringens CVCC 51; test: microbe, parasite or virus in culture; settings: Clostridium perfringens, CVCC51, 18 h
[8] = tested on: C. perfringens CVCC 46; type: cell-based, Clostridium perfringens type A; settings: CVCC 46; 2×MIC, 1×10^5 CFU/mL, 37°C, colony counts
[9] = tested on: C. perfringens CVCC 46; settings: for FIC: MIC in combination / MIC alone
[10] = tested on: C. perfringens JT1; test: microbe, parasite or virus in culture; settings: Clostridium perfringens, JT1, 18 h
[11] = tested on: C. perfringens CVCC 46; test: microbe, parasite or virus in culture; settings: Clostridium perfringens, CVCC46, 18 h
[12] = tested on: C. perfringens JZ10; test: microbe, parasite or virus in culture; settings: Clostridium perfringens, JZ10, 18 h
[13] = tested on: C. perfringens CVCC 1137; test: microbe, parasite or virus in culture; settings: Clostridium perfringens, CVCC1137, 18 h
[14] = tested on: C. perfringens JC2; test: microbe, parasite or virus in culture; settings: Clostridium perfringens, JC2, 18 h
[15] = tested on: C. perfringens CVCC 51; settings: CVCC 51; broth microdilution, anaerobic 37°C, 12~18 h
[16] = tested on: C. perfringens CVCC 1137; settings: CVCC 1137; broth microdilution, anaerobic 37°C, 12~18 h

## CC[C@H](C)[C@@H]1NC(=O)[C@H](CO)NC(=O)[C@H](CCCCN)NC(=O)[C@@H]2CSSC[C@@H](C(=O)N[C@@H](Cc3ccc(O)cc3)C(=O)O)NC(=O)[C@H](CCCCN)NC(=O)[C@@H]3CSSC[C@H](NC(=O)[C@H](CCC(N)=O)NC(=O)[C@H](CCSC)NC(=O)[C@H](CC(=O)O)NC(=O)[C@H](CC(=O)O)NC(=O)[C@H](CCC(=O)O)NC(=O)[C@H](CC(=O)O)NC(=O)[C@H](Cc4c[nH]c5ccccc45)NC(=O)[C@@H]4CCCN4C(=O)CNC(=O)[C@H](CC(N)=O)NC(=O)[C@@H](NC(=O)CNC(=O)[C@H](Cc4ccccc4)NC(=O)CN)CSSC[C@H](NC(=O)[C@H](Cc4ccc(O)cc4)NC(=O)CNC(=O)CNC(=O)[C@H](CCCCN)NC(=O)[C@H](Cc4ccc(O)cc4)NC(=O)CNC(=O)[C@H](CCCCN)NC1=O)C(=O)N[C@@H](C)C(=O)N[C@@H](CCCCN)C(=O)NCC(=O)NCC(=O)N[C@@H](Cc1ccccc1)C(=O)N[C@@H](C(C)C)C(=O)N3)C(=O)N[C@@H](Cc1c[nH]cn1)C(=O)N[C@@H](CC(N)=O)C(=O)N[C@@H](Cc1c[nH]cn1)C(=O)N2 [Plectasin]
[1]
  Hemolysis / cytotoxicity: non-hemolytic or non-cytotoxic
[2]; CVCC 46, 18 h
  MBC: 1.81 µM (≈ 7.97 µg/mL)
  MIC: 1.81 µM (≈ 7.97 µg/mL)
[3]; JC2, 18 h
  MIC: >14.5 µM
[4]; JZ10, 18 h
  MIC: >14.5 µM
[5]; JT1, 18 h
  MIC: 0.23 µM (≈ 1.01 µg/mL)

## CCC[C@@H]1C[C@@H](C(=O)N[C@@H]([C@H]2O[C@H](SC)[C@H](O)[C@@H](O)[C@H]2O)[C@@H](C)O)N(C)C1 [Lincomycin]
[6]
  MIC: 8.68 µM
[7]
  MIC: 4.3 µM (≈ 1.75 µg/mL)
[8]
  Time to 99.9% reduction of bacterial counts: 2~4 h
[9]; combination Lincomycin-MP1102, CVCC 46
  MICC (MIC of drug used in combination): 4.34 µM
[9]; combination Lincomycin-MP1102
  FIC: 0.5
[9]; combination Lincomycin-NZ2114, CVCC 46
  MICC (MIC of drug used in combination): 4.34 µM
[9]; combination Lincomycin-NZ2114
  FIC: 0.5
[10]
  MIC: 2.2 µM (≈ 0.894 µg/mL)
[11]
  MBC: 8.68 µM (≈ 3.53 µg/mL)
  MIC: 8.68 µM (≈ 3.53 µg/mL)
[12]
  MIC: > 278 µM
[13]
  MIC: 2.17 µM (≈ 0.882 µg/mL)
[14]
  MIC: > 278 µM

## Virginiamycin
[15]
  MIC: 0.24 µM
[8]
  Time to 99.9% reduction of bacterial counts: 2~4 h
[2]; CVCC 46, broth microdilution, 1×10^5 CFU/mL, anaerobic 37°C, 12~18 h, triplicate
  MIC: 0.96 µM
[2]; CVCC 46, broth microdilution, anaerobic 37°C, 12~18 h, triplicate
  MBC: 0.96 µM
[9]; CVCC 46, chequerboard, drug alone, triplicate
  MICa (MIC of drug used alone): 0.96 µM
[9]; combination Virginiamycin-MP1102, CVCC 46
  MICC (MIC of drug used in combination): 0.12 µM
[9]; combination Virginiamycin-MP1102
  FIC: 0.125
[9]; combination Virginiamycin-NZ2114, CVCC 46
  MICC (MIC of drug used in combination): 0.48 µM
[9]; combination Virginiamycin-NZ2114
  FIC: 0.5
[3]; JC2, broth microdilution, anaerobic 37°C, 12~18 h
  MIC: 60.9 µM
[4]; JZ10, broth microdilution, anaerobic 37°C, 12~18 h
  MIC: 121.8 µM
[16]
  MIC: 0.48 µM
[5]; JT1, broth microdilution, anaerobic 37°C, 12~18 h
  MIC: 0.46 µM
